“Also recorded” adds a separate entry of the source.

What all share (type): cell-based, Pseudomonas aeruginosa
For one assay, the system named is PAO1-L. The assay can be described thus: Pyocyanin quantification, PAO1-L. To be noted: compound at 3 x IC50, 16 h, compared with the control. An excerpt: Pyocyanin is an important virulence factor for P. aeruginosa infections and in particular respiratory and urinary tract infections. Pyocyanin is a redox-active phenazine the production of which is regulated via PqsR and PqsE (Hall et al., [2016]; Rampioni et al., [2016]; Higgins et al., [2018]). Therefore, pyocyanin production serves as an indirect readout of the activity of the pqs QS system. […] Compound 40 reduced pyocyanin production by over 80% in both strains in agreement with bioreporter assay results.
Figure 4 Pyocyanin production by Pseudomonas aeruginosa after treatment with pqs inhibitors 8, 14, 23, 34, 25, 26, and 40. Quantification of pyocyanin production after inhibitor treatment at 3 × IC50 for both PAO1-L and PA14. The graph represents the average of three independent experiments carried out in triplicate (n = 9).
PAO1-L Wild type PAO1, Lausanne subline. B.
PAO1-L mCTX::PpqsA- PAO1-L with chromosomal mini-CTX::PpqsA-lux (Soukarieh lux insertion; TcR et al., 2018)
PA14 Wild type UCBPP-PA14 (Rahme et
(§1) PA14 mCTX::PpqsA-lux PA14 with chromosomal mini-CTX::PpqsA-lux (Soukarieh insertion; TcR et al., 2018) […]
Pyocyanin quantification: […]
Pyocyanin pigment was extracted into chloroform by mixing 7.5 mL of supernatant with 4.5 mL of chloroform. Pyocyanin w as further extracted into 1.5 mL of 0.2 M HCL which gave a pink/red solution and the absorbance was measured at 520 nm.

The subject of the next assay is PA14 mCTX::PpqsA-lux. In words: PpqsA-lux bioreporter assay, strain PA14. To be noted: Pseudomonas aeruginosa, PA14, read-out: IC50 PA14.
Source text: To inform the structural variation of 7, crystal structures with the endogenous ligand [4-hydroxy-2-heptylquinoline (NHQ)] and the inhibitor M64 were used (Ilangovan et al., [2013]; Kitao et al., [2018]). The PqsR LBD is dominated by lipophilic interactions, therefore the current SAR exploration mainly focused on varying the aromatic tail substituents and examining the effect of 8-position substitution. The rationale for these modifications was primarily based on molecular docking studies that provided insights into the mode of binding of 7 and approaches intended to improve potency. The substituent at the para- position of the aromatic ring appeared to be crucial for biological activity due to the vital π-π stacking interaction of this group with Tyr^258. […] These strains emit light upon activation of PqsR by the endogenous production of these signal molecules. […] The results of the SAR in this assay highlight the importance of testing any prospective anti-virulence strategy on multiple genetically distinct P. aeruginosa strains as a means to reduce the chance of failure at both pre-clinical and clinical stages (Freschi et al., [2015]). […]
as §1
mini-CTX::PpqsA-lux R6K-based mini-CTX suicide plasmid for the (Diggle et chromosomal insertion of a PpqsA-lux al., 2007) transcriptional reporter fusion; TcR
Biosensor reporter assay:
Strains PA14 mCTX::PpqsA-lux and PAO1-L mCTX::PpqsA-lux were constructed using plasmid mini-CTX::PpqsA-lux as previously described (Diggle et al., 2007) and the assay was performed according to published procedures (Fletcher et al., 2007). For screening, the compounds were tested at 10 µM concentration which was prepared from 10 mM stock in DMSO. […]
A general note: Reporter assays use an easily measured gene product as a stand-in for the process of interest.

For another assay, the system named is PAO1-L biofilms. In words: Biofilm viability assay (LIVE/DEAD BacLight, CLSM). To be noted: 6 and 24 h.

Procedure for PAO1-L biofilms: PAO1-L biofilms were established for 2 days before challenging with these treatments for 6 and 24 h followed by Live/Dead staining.
Figure 7 Bar chart showing PAO1-L biofilm viability quantified after treatment with different conditions for 6 or 24 h.
Mature pre-established P. aeruginosa PAO1-L biofilms were grown to assess the effects of co-
For these assays, PAO1-L biofilms were grown on round glass coverslips (8 mm, #1.5 thickness) under flow conditions (20 rpm) in FAB containing 10
mM glucose medium inoculated with a diluted (OD600nm = 0.01) bacterial suspension from overnight
cultures in LB. Biofilms were cultivated at 30°C for 2 days with medium replacement every day.

The IC50 is the midpoint of a concentration-inhibition curve. With `Cn1c2ccccc2c2nnc(SCC(=O)Nc3ccc(Oc4ccccn4)cc3)nc21` [Compound 40, 2-((5-Methyl-5H-[1,2,4]triazino[5,6-b]indol-3-yl)thio)-N-(4-(pyridin-2-yloxy)phenyl)acetamide], the “inhibition of pyocyanin production” value with PAO1-L is recorded as “over 80%”. Also, the IC50 in the assay on PA14 mCTX::PpqsA-lux amounted to 340 ± 30 nM. Also, the biofilm viability result in the assay with PAO1-L biofilms (pre-established PAO1-L biofilms (48 h), 40 at 10 μM) is recorded as “growth of the community increased; also recorded: slight increase in viability”. Moreover, the “biofilm killing in combination with CIP” value in the assay with PAO1-L biofilms (pre-established PAO1-L biofilms, 40 10 μM combined with ciprofloxacin 60 μg/mL) is on record as “did not result in an enhanced biofilm killing”.
